Test results taken from ChEMBL document CHEMBL5036323, “Discovery of RRx-001, a Myc and CD47 Downregulating Small Molecule with Tumor Targeted Cytotoxicity and Healthy Tissue Cytoprotective Properties in Clinical Development” (J Med Chem, 2021).

Legend:
SCC-7 [1] = experiment: Antitumor activity against mouse SCC-7 cells implanted in C3H mouse assessed as tumor growth time at 12 mg/kg, ip treated every other day 3 times in total (reference value: 2.8 +/- 0.6 day); type: functional
SCC-7 [2] = experiment: Antitumor activity against mouse SCC-7 cells implanted in C3H mouse assessed as tumor growth time delay at 12 mg/kg, ip treated every other day 3 times in total; type: functional
IMR-32 = experiment: Antiproliferative activity against human IMR-32 cells assessed as cell growth inhibition by CCK8 assay; type: functional, cell-based
[3] = Terminal half life in human plasma; type: ADME, cell-free; conditions: read-out: beta t1/2
SCC-7 [4] = experiment: Antiproliferative activity against mouse SCC-7 cells assessed as cell growth inhibition by CCK8 assay; type: functional, cell-based
U-87 MG = experiment: Antiproliferative activity against human U87 cells assessed as cell growth inhibition by CCK8 assay; type: functional, cell-based, U-87MG ATCC
A498 = experiment: Antiproliferative activity against human A498 cells assessed as cell growth inhibition by CCK8 assay; type: functional, cell-based
UMSCC22B = experiment: Antiproliferative activity against human UMSCC22B cells assessed as cell growth inhibition by CCK8 assay; type: functional, cell-based
PANC-1 = experiment: Antiproliferative activity against human PANC-1 cells assessed as cell growth inhibition by CCK8 assay; type: functional, cell-based
MCF7 = experiment: Antiproliferative activity against human MCF7 cells assessed as cell growth inhibition by CCK8 assay; type: functional, cell-based
M21 = experiment: Antiproliferative activity against human M21 cells assessed as cell growth inhibition by CCK8 assay; type: functional, cell-based
SNB-75 = experiment: Antiproliferative activity against human SNB-75 cells assessed as cell growth inhibition by CCK8 assay; type: functional, cell-based
RKO = experiment: Antiproliferative activity against human RKO cells assessed as cell growth inhibition by CCK8 assay; type: functional, cell-based
A549 = experiment: Antiproliferative activity against human A549 cells assessed as cell growth inhibition by CCK8 assay; type: functional, cell-based
HT-29 = experiment: Antiproliferative activity against human HT-29 cells assessed as cell growth inhibition by CCK8 assay; type: functional, cell-based

| Compound | Time (SCC-7 [1]) [days] | Time (SCC-7 [2]) [days] | IC50 (IMR-32) [pM] | half-life [3] [min] | IC50 (SCC-7 [4]) [pM] | IC50 (U-87 MG) [pM] | IC50 (A498) [pM] | IC50 (UMSCC22B) [pM] | IC50 (PANC-1) [pM] | IC50 (MCF7) [pM] | IC50 (M21) [pM] | IC50 (SNB-75) [pM] | IC50 (RKO) [pM] | IC50 (A549) [pM] | IC50 (HT-29) [pM] |
| --- | --- | --- | --- | --- | --- | --- | --- | --- | --- | --- | --- | --- | --- | --- | --- |
| N[C@@H](CSCC(=O)N1CC([N+](=O)[O-])([N+](=O)[O-])C1)C(=O)O | 3.9 | 1.1 |  |  |  |  |  |  |  |  |  |  |  |  |  |
| O=C(CBr)N1CCC1 | 3.8 | 1 |  |  |  |  |  |  |  |  |  |  |  |  |  |
| C[N+](C)(C)CC(=O)N1CC([N+](=O)[O-])([N+](=O)[O-])C1 | 3.6 | 0.8 |  |  |  |  |  |  |  |  |  |  |  |  |  |
| O=C(CBr)N1CC([N+](=O)[O-])([N+](=O)[O-])C1 [NIBROZETONE] | 4.8 | 2 | 5.1 | 27.6 | 1.8 | 2.7 | 4.9 | 2.3 | 2.3 | 4 | 2.6 | 3.8 | 3 | 6 | 3.4 |
